Reference: patent US10961242B2, “Compounds as autotaxin inhibitors and pharmaceutical compositions comprising the same” (LegoChem Biosciences, Inc., priority 2018, dated 2021)
Read-outs that look alike come from different tables or passages of the source.

Legend:
human ENPP2 = human ENPP2 (Homo sapiens (Human), UniProt Q13822); assay: Inhibitory activity on human ENPP2 (FS-3 assay); type: biochemical
Description: Two-fold dilution of each test compound solution (10 μM, 100% dimethyl sulfoxide) is carried out on 96-well V bottom plate (Costar 3363). After ten-fold dilution of each the test compound solution (100% dimethyl sulfoxide) with deionized distilled water, 10 μL of the diluted each mpound solution (10% dimethyl sulfoxide) was aliquoted to a black flat bottom 96-well plate (Costar 3915).

[1] = test system: LPA production in blood serum caused by autotoxin; assay: Inhibitory activity on LPA production in mouse blood serum; type: biochemical; details: mouse blood serum (m), 18:1 LPC, 3 hours at 37° C.
Description: (§1) After 100-fold dilution of each test compound solution (5 μL) (10 mM, 100%, dimethyl sulfoxide) with 495 μL of methanol, 3 μL of the diluted methanol solution (1% dimethyl sulfoxide) was mixed with 57 μL of human or mouse blood serum solution in a 1.5 mL tube. […] Subsequently, a solution prepared by diluting 10 mg/mL 18:1 LPC solution (50% ethanol) with blood serum to have concentration of 375 μg/mL was aliquoted in an amount of 2 μL to each tube so as to have 50 μL. Each tube was kept for 3 hours in a water bath at 37° C. to allow a reaction. To the tube obtained after the reaction, 100 μL of 0.5 μM 17:0 LPA solution (chloroform/methanol/water=65/35/8) was aliquoted and mixed therein. Centrifuge was carried out for 10 minutes using a centrifuge at conditions of 14,000 rpm and 4° C. 100 μL of 50% methanol solution is aliquoted first to a 96-well polypropylene plate (Agilent Technology 5042-1385), and the supernatant (50 μL) in a tube after the centrifuge was carefully transferred to the plate followed by mixing. After covering it with Well cap (Thermo 276011), analysis was carried out by LC-MS/MS (Agilent 1260).
(§2) In the following Table 3, the mouse blood serum was described as (m) and human blood serum was described as (h).

[2] = test system: LPA production in blood serum caused by autotoxin; assay: Inhibitory activity on LPA production in human blood serum; type: biochemical; details: human blood serum (h), 18:1 LPC, 3 hours at 37° C.
Description: as §1, §2

human ATX = human ATX (Homo sapiens (Human), UniProt Q13822); assay: Bis-pNPP assay; type: biochemical; details: bis-pNPP substrate, read-out: Enzymatic assay (IC50) bis-pNPP
Description: Eight-fold dilution of each test compound solution (10 μM, 100% dimethyl sulfoxide) is carried out on 96-well V bottom plate (Costar 3363). After […] of each test compound solution (100% dimethyl sulfoxide) with deionized distilled water, 10 μL of the diluted each test compound solution (10% dimethyl sulfoxide) was aliquoted to a black flat bottom 96-well plate (Costar 3915). 50 μL of 60 mM Tris-HCl (pH9.0) buffer was added thereto, and subsequently 20 μL of 3.75 nM human ATX solution (buffer solution: 50 mM Tris-HCl (pH8.5), 5 mM CaCl2, 2.5 mM MgCl2, 0.01% Brij35) and 20 μL of 25 mM Bis-pNPP (bis(p-Nitrophenyl)-phosphate sodium salt) solution (buffer solution: 50 mM Tris-HCl (pH9.0)) were added thereto, respectively, followed by mixing. […] Furthermore, IC50 values that are shown in Table 3 were calculated using Grafit5 Software based on the inhibitory activity percentage ratio.

[3] = test system: LPA production in mouse plasma; assay: Ex-vivo assay (LPC assay) in mouse plasma; type: biochemical; details: LPA 18:1
Description: After 100-fold dilution of each test compound solution (5 μL) (10 mM, 100%, dimethyl sulfoxide) with 495 μL of methanol, 3 μL of the diluted methanol solution (1% dimethyl sulfoxide) was mixed with 57 μL of human or mouse blood serum solution in a 1.5 mL tube. The mixed test compound solution was serially diluted, 12 μL for each, with 48 μL of 100% blood serum to have 5 different concentrations, and each tube was kept for 15 minutes in a water bath with constant temperature of 37° C. Subsequently, a solution prepared by diluting 10 mg/mL 18:1 LPC solution (50% ethanol) with blood serum to have concentration of 375 μg/mL was aliquoted in an amount of 2 μL to each tube so as to have 50 μL. Each tube was kept for 3 hours in a water bath at 37° C. to allow a reaction. To the tube obtained after the reaction, 100 μL of 0.5 μM 17:0 LPA solution (chloroform/methanol/water=65/35/8) was aliquoted and mixed therein. Centrifuge was carried out for 10 minutes using a centrifuge at conditions of 14,000 rpm and 4° C. 100 μL of 50% methanol solution is aliquoted first to a 96-well polypropylene plate (Agilent Technology 5042-1385), and the supernatant (50 μL) in a tube after the centrifuge was carefully transferred to the plate followed by mixing. After covering it with Well cap (Thermo 276011), analysis was carried out by LC-MS/MS (Agilent 1260).
The test was carried out in the same process as Test example 2 to obtain the IC50 values in the following table 4.

[4] = Microsomal stability, human liver microsomes; type: in vitro ADME; details: both sexes, pH 7.4; human liver microsomes (h), 0.5 mg/mL, NADPH regenerating system; read-out: MS (microsomal stability) t1/2
Description: (§3) A 2.5 mM stock solution of test compound in DMSO is diluted to 25 uM with 100 mM potassium phosphate buffer (pH 7.4) containing 5 mM EDTA. This solution was mixed with reaction mixtures (final concentration 1 μM). The incubation mixtures (final volume 700 μL) of test compound with liver microsomes [Xenotech; rat (male SD), human (mixed gender)] consisted of liver microsomes (0.5 mg/mL), substrate (Compound 4, […]), NADPH regenerating system (1.3 mM NADP+, 3.3 mM Glucose-6-phosphate, 3.3 mM MgCl2, 0.4 U/ml Glucose-6-phosphate dehydrogenase) in 81.3 mM potassium phosphate buffer (pH 7.4) containing 1 mM EDTA in duplicates. The reaction was initiated by addition of the NADPH regenerating system after preincubation at 37° C. for 10 min with test compounds. 100 uL of aliquot of the sample was removed at 0, 5, 10, 20, 30 and 60 min. The reaction was stopped by addition of 200 uL of acetonitrile containing internal standard (0.3 uM of Dextromethorphan). Each sample was mixed and centrifuged at 14000 rpm for 10 min. The resulting supernatant was analyzed by the LC-MS/MS method for determination of loss of parent compound. % parent remaining was calculated at 6 point time testing was done for T½ determination.

[5] = Microsomal stability, rat liver microsomes; type: in vitro ADME; details: male, SD, pH 7.4; rat liver microsomes (r), 0.5 mg/mL, NADPH regenerating system; read-out: MS (microsomal stability) t1/2
Description: as §3

[6] = FS-3 assay, same process as Test example 1, read-out: Enzymatic assay (IC50) FS-3

Which IC50 (human ENPP2; human ENPP2, FS-3 substrate, 30 min at 37° C., read-out: IC50) does the source give for O=C(Cc1nnc(-c2cnc(NC3CC=C(c4cccc(Cl)c4)CC3)nc2)o1)N1CCc2[nH]nnc2C1 (stereo not drawn) [Compound 35, 2-[5-(2-{[4-(3-chlorophenyl)cyclohex-3-en-1-yl]amino}pyrimidin-5-yl)-1,3,4-oxadiazol-2-yl]-1-{1H,4H,5H,6H,7H-[1,2,3]triazolo[4,5-c]pyridin-5-yl}ethan-1-one] here?
The IC50 was 2.4 nM.

And the IC50 [1]?
Its IC50 is 46 nM.

What about the IC50 [2] of the same compound?
The IC50 was 99 nM.

With O=C(Cn1cc(-c2cnc(NC3Cc4ccccc4C3)nc2)c(-c2ccncc2)n1)N1CCc2[nH]nnc2C1 [Compound 96, 2-(4-{2-[(2,3-dihydro-1H-inden-2-yl)amino]pyrimidin-5-yl}-3-(pyridin-4-yl)-1H-pyrazol-1-yl)-1-{1H,4H,5H,6H,7H-[1,2,3]triazolo[4,5-c]pyridin-5-yl}ethan-1-one] as the compound, how does the IC50 (human ENPP2; [6]) read?
Its IC50 is 2.02 nM.

What about the IC50 (human ATX) of the same compound?
The IC50 was less than 1.56 nM.

What about the IC50 [3] of the same compound?
The IC50 was 3.65 nM.

And the half-life at 1 µM [4]?
The half-life at 1 µM was 22.2 min.

And the half-life at 1 µM [5]?
Its half-life at 1 µM is 30 ± 1.57 min.

Which IC50 (human ENPP2; [6]) does the source give for O=C(Cn1cc(-c2cnc(NC3Cc4ccccc4C3)nc2)c(C2CCNCC2)n1)N1CCc2[nH]nnc2C1 [Compound 98, 2-(4-{2-[(2,3-dihydro-1H-inden-2-yl)amino]pyrimidin-5-yl}-3-(piperidin-4-yl)-1H-pyrazol-1-yl)-1-{1H,4H,5H,6H,7H-[1,2,3]triazolo[4,5-c]pyridin-5-yl}ethan-1-one] here?
The IC50 was 9.39 nM.

What about the IC50 (human ATX) of the same compound?
Its IC50 is less than 1.56 nM.

And the half-life at 1 µM [4]?
Its half-life at 1 µM is greater than 60 min.

What about the half-life at 1 µM [5] of the same compound?
The half-life at 1 µM was greater than 60 min.

What does the source list for O=C(Cn1cc(-c2cnc(NC3Cc4ccccc4C3)nc2)c(NC2CCC2)n1)N1CCc2[nH]nnc2C1 [Compound 100, 2-[3-(cyclobutylamino)-4-{2-[(2,3-dihydro-1H-inden-2-yl)amino]pyrimidin-5-yl}-1H-pyrazol-1-yl]-1-{1H,4H,5H,6H,7H-[1,2,3]triazolo[4,5-c]pyridin-5-yl}ethan-1-one]?
IC50 (human ENPP2; [6]): 1.74 nM; IC50 (human ATX): 3.6 nM; half-life at 1 µM [4]: 16.4 min; half-life at 1 µM [5]: 10.3 ± 0.72 min

For CCN(CC)c1nn(CC(=O)N2CCc3[nH]nnc3C2)cc1-c1cnc(NC2Cc3ccccc3C2)nc1 [Compound 106, 2-[3-(diethylamino)-4-{2-[(2,3-dihydro-1H-inden-2-yl)amino]pyrimidin-5-yl}-1H-pyrazol-1-yl]-1-{1H,4H,5H,6H,7H-[1,2,3]triazolo[4,5-c]pyridin-5-yl}ethan-1-one], which IC50 (human ENPP2; [6]) is on record?
The IC50 was 2.57 nM.

And the IC50 (human ATX)?
The IC50 was 2.27 nM.

What about the half-life at 1 µM [4] of the same compound?
Its half-life at 1 µM is 4.2 min.

And the half-life at 1 µM [5]?
Its half-life at 1 µM is 3.9 ± 0.03 min.

Which results are given for O=C(CO)N1CCN(C(=O)Cn2cc(-c3cnc(NC4Cc5ccccc5C4)nc3)c(-c3ccncc3)n2)CC1 [Compound 115, 1-{4-[2-(4-{2-[(2,3-dihydro-1H-inden-2-yl)amino]pyrimidin-5-yl}-3-(pyridin-4-yl)-1H-pyrazol-1-yl)acetyl]piperazin-1-yl}-2-hydroxyethan-1-one]?
IC50 (human ENPP2; [6]): 3.04 nM; IC50 (human ATX): 66.8 nM; IC50 [3]: 125 nM; half-life at 1 µM [4]: > 60 min; half-life at 1 µM [5]: > 60 min

For O=C(Cn1cc(-c2cnc(NC3Cc4ccccc4C3)nc2)c(-c2ccccn2)n1)N1CCc2[nH]nnc2C1 [Compound 116, 2-(4-{2-[(2,3-dihydro-1H-inden-2-yl)amino]pyrimidin-5-yl}-3-(pyridin-2-yl)-1H-pyrazol-1-yl)-1-{1H,4H,5H,6H,7H-[1,2,3]triazolo[4,5-c]pyridin-5-yl}ethan-1-one], which IC50 (human ENPP2; [6]) is on record?
Its IC50 is less than 1.56 nM.

What about the IC50 (human ATX) of the same compound?
The IC50 was less than 1.56 nM.

And the IC50 [3]?
Its IC50 is 7.1 nM.

And the half-life at 1 µM [4]?
Its half-life at 1 µM is 33 min.

And the half-life at 1 µM [5]?
Its half-life at 1 µM is 25.2 ± 0.69 min.
